The Deep4Chem optical property database

Assay: solvent given as SMILES

With `CCC1=C(C2=C(C3=C(CC)S(=O)(=O)c4cc(-c5ccccc5)ccc43)C(F)(F)C(F)(F)C2(F)F)c2ccc(-c3ccccc3)cc2S1(=O)=O` the absorption maximum (in C1COCCO1) was 336 nm.
Work on `CC1(C)c2ccccc2N(c2ccc3c(ccc4nc5ccc6cc(N7c8ccccc8C(C)(C)c8ccccc87)ccc6c5nc43)c2)c2ccccc21` yielded an absorption maximum (in C1CCCCC1) of 413 nm, an absorption maximum (in C1CCOC1) of 416 nm and an absorption maximum (in CN(C)C=O) of 418 nm. It also gave an absorption maximum (in Cc1ccccc1) of 416 nm and an absorption maximum (in ClCCl) of 416 nm.
For `Cc1cc(C)c2cc3cc(C)ncc3cc2c1`, the absorption maximum (in CCO) was 386.1 nm.
In the case of `C(#Cc1ccccc1)c1ccccc1`, the absorption maximum (in CO) is reported as 298 nm, the absorption maximum (in ClC(Cl)Cl) is reported as 299 nm and the absorption maximum (in ClCCl) is reported as 299 nm.
`CN(C)c1ccc(-n2c(-c3ccncc3)nc3ccccc32)cc1` gave an absorption maximum (in CC#N) of 299 nm.
Molecule `Fc1ccc2sc3nc(-c4ccccc4)sc3c2c1` has an absorption maximum (in CS(C)=O) of 345 nm.
`CCOC(=O)C1=C(C)NC2=C(C(=O)c3ccccc32)C1c1ccc(N(C)C)cc1` (centres undefined) showed an absorption maximum (in C1CCOC1) of 374 nm, an absorption maximum (in C1COCCO1) of 373 nm and an absorption maximum (in CC#N) of 379 nm. It also gave an absorption maximum (in CCO) of 395 nm, an absorption maximum (in CN(C)C=O) of 385 nm and an absorption maximum (in CO) of 389 nm. It also gave an absorption maximum (in CS(C)=O) of 400 nm, an absorption maximum (in ClC(Cl)(Cl)Cl) of 371 nm and an absorption maximum (in ClC(Cl)Cl) of 383 nm. It also gave an absorption maximum (in ClCCl) of 387 nm.
Work on `COC(=O)c1cc(=O)n(C)c2cc(-c3ccccc3OC)sc12` yielded an absorption maximum (in CC#N) of 396 nm and an absorption maximum (in ClCCl) of 398 nm.
`COc1ccc(-c2c3ccccc3c(-c3ccc(OC)cc3)c3ccccc23)cc1` showed an absorption maximum (in ClCCl) of 376 nm.
`N#C/C(=C\c1ccncc1)c1nc(-c2ccc(Cl)cc2)cs1` gave an absorption maximum (in CC#N) of 357 nm.
`C[Si]1(C)c2ccccc2-c2ccccc21` gave an absorption maximum (in ClCCl) of 336 nm.
In the case of `CCCCCCCCCCn1cc(C2=C(c3cn(CCCCCCCCCC)c4ccccc34)C(=O)N(C)C2=O)c2ccccc21`, the absorption maximum (in C1CCCCC1) is reported as 462 nm, the absorption maximum (in C1CCOC1) is reported as 471 nm and the absorption maximum (in CC#N) is reported as 470 nm. The absorption maximum (in CC(C)OC(C)C) was 470 nm, the absorption maximum (in CCCCOCCCC) was 469 nm and the absorption maximum (in CCO) was 480 nm. For the same molecule, the absorption maximum (in CCOC(C)=O) was 472 nm, the absorption maximum (in CN(C)C=O) was 474 nm and the absorption maximum (in Cc1ccccc1) was 472 nm. The absorption maximum (in ClCCl) was 477 nm.
In the case of `Cc1cc(-c2nc(-c3ccccc3)nc(-c3ccccc3)n2)ccc1-c1ccc2c(c1)C1(c3ccccc3-c3ccccc31)c1ccccc1N2c1ccccc1`, the absorption maximum (in c1cc(-c2cccc(-n3c4ccccc4c4ccccc43)c2)cc(-n2c3ccccc3c3ccccc32)c1) is reported as 371.92 nm.
In the case of `FC(F)(F)C(F)(F)C(F)(F)C1=NC2=C(c3ccccc3)C=C3c4cc(-c5ccccc5)c5nc(C(F)(F)C(F)(F)C(F)(F)F)nc6c(-c7ccccc7)cc(c4c56)=C4C=C(c5ccccc5)C(=N1)C2C34` (centres undefined), the absorption maximum (in C1CCOC1) is reported as 500 nm.
With `CCCCC(CC)COc1ccc2nc(-c3ccc(-c4c(C)noc4C)s3)sc2c1` (centres undefined) the absorption maximum (in ClCCl) was 359 nm.
Work on `C[Si](C)(C)C#Cc1cc2ccc3cc(C#C[Si](C)(C)C)cc4ccc(c1)c2c34` yielded an absorption maximum (in Cc1ccccc1) of 407 nm.
`CC1(C)Cc2c(c3ccccc3c3nc4c(nc23)c2c(c3ccccc34)OC(C)(C)C2)O1` gave an absorption maximum (in C1CCCCC1) of 451.06 nm, an absorption maximum (in C1COCCO1) of 453.93 nm and an absorption maximum (in CC#N) of 454.96 nm. It also gave an absorption maximum (in CC(C)O) of 452.08 nm, an absorption maximum (in CCCCCC) of 450.05 nm and an absorption maximum (in ClC(Cl)Cl) of 457.04 nm. The absorption maximum (in c1ccccc1) was 454.96 nm.
`Cc1ccccc1-c1c2ccc(=[N+]3CCCCC3)cc-2oc2cc(N3CCCCC3)ccc12` gave an absorption maximum (in CCO) of 564 nm and an absorption maximum (in ClCCl) of 565 nm.
`COc1cc2c3cc(OC)c(OC)cc3c3cc4c(C)cc(=O)oc4cc3c2cc1OC` showed an absorption maximum (in C1CCOC1) of 366 nm, an absorption maximum (in CO) of 364 nm and an absorption maximum (in CS(C)=O) of 370 nm. For the same molecule, the absorption maximum (in Cc1ccccc1) was 366 nm and the absorption maximum (in ClC(Cl)Cl) was 368 nm.
`COC(=O)CN1C(=O)c2cc3ccc(N(C)C)cc3cc2C1=O` gave an absorption maximum (in C1CCOC1) of 373 nm, an absorption maximum (in CC#N) of 380 nm and an absorption maximum (in CC(C)=O) of 375 nm. The absorption maximum (in CCO) was 379 nm, the absorption maximum (in Cc1ccccc1) was 373 nm and the absorption maximum (in ClC(Cl)Cl) was 380 nm.
`CC/[NH+]=c1\cc2oc3cc(NCCNC(=O)C(NC(=O)OC(C)(C)C)C(C)C)c4ccccc4c3nc-2cc1C` (centres undefined) gave an absorption maximum (in CCO) of 590 nm and an absorption maximum (in O) of 590 nm.
With `CCCCN1C(=O)C2=C(c3ccc(-c4ccccc4)cc3)[N-]C(=O)C2=C1c1ccc(-c2ccccc2)cc1` the absorption maximum (in ClCCl) was 585 nm.
Work on `Fc1c(F)c(F)c([B-]2(c3c(F)c(F)c(F)c(F)c3F)Oc3c(ccc4c5c(ccc34)C=[N+](c3ccccc3)[B-](c3c(F)c(F)c(F)c(F)c3F)(c3c(F)c(F)c(F)c(F)c3F)O5)C=[N+]2c2ccccc2)c(F)c1F` yielded an absorption maximum (in C1CCOC1) of 522 nm, an absorption maximum (in CC#N) of 515 nm and an absorption maximum (in CC(C)=O) of 515 nm. It also gave an absorption maximum (in Cc1ccccc1) of 531 nm and an absorption maximum (in ClCCl) of 533 nm.
Molecule `CC1=CC(/C=C/c2ccc(N(C)C)cc2)=[N+]2C1=C(c1ccc(I)cc1)c1c(C)cc(/C=C/c3ccc(N(C)C)cc3)n1[B-]2(F)F` has an absorption maximum (in CC#N) of 701 nm.
`O=P(c1ccccc1)(c1ccccc1)c1cccc(-n2c(-c3ccccc3P(=O)(c3ccccc3)c3ccccc3)nc3ccccc32)c1` gave an absorption maximum (in ClCCl) of 300 nm.
Work on `Cc1cc(-c2ccccc2C)cc(C)[o+]1` yielded an absorption maximum (in CC#N) of 327 nm and an absorption maximum (in ClCCl) of 343 nm.
Work on `C[Si](C)(C)c1cc2c(cc3ccc4cccc5ccc2c3c45)[nH]1` yielded an absorption maximum (in CCOC(C)=O) of 392 nm.
In the case of `Cc1ccc(C2=C3C=CC(/C=C/c4ccccc4)=[N+]3[B-](F)(F)n3c(/C=C/c4ccccc4)ccc32)cc1`, the absorption maximum (in C1CCCCC1) is reported as 630 nm, the absorption maximum (in C1CCOC1) is reported as 632 nm and the absorption maximum (in C1COCCO1) is reported as 633 nm. For the same molecule, the absorption maximum (in CO) was 626 nm and the absorption maximum (in ClC(Cl)Cl) was 635 nm.
With `Cn1nc(-c2ccccc2)c2n[nH]nc2/c1=N\c1ccccn1` the absorption maximum (in CC#N) was 402 nm, the absorption maximum (in CCO) was 382 nm and the absorption maximum (in Cc1ccccc1) was 410 nm.
Work on `CCN(CC)c1ccc(-c2nc(Oc3ccc(-c4nc5ccc(Cl)cc5o4)cc3)nc(Oc3ccc(-c4nc5ccc(Cl)cc5o4)cc3)n2)cc1` yielded an absorption maximum (in CN(C)C=O) of 393 nm.
`Cc1cc(C)c(B(c2c(C)cc(C)cc2C)c2cc3ccc4ccccc4c3c3c2cc(N(C)C)c2ccccc23)c(C)c1` showed an absorption maximum (in C1CCCCC1) of 438 nm, an absorption maximum (in C1CCOC1) of 439 nm and an absorption maximum (in CC#N) of 437 nm. The absorption maximum (in ClC(Cl)Cl) was 440 nm and the absorption maximum (in c1ccccc1) was 440 nm.
Work on `CCCCN1C(=O)c2cc(Oc3ccc(C(C)(C)C)cc3)c3c4c(Oc5ccc(C(C)(C)C)cc5)c(Oc5ccc(C(C)(C)C)cc5)c5c6c(cc(Oc7ccc(C(C)(C)C)cc7)c(c7c(Oc8ccc(C(C)(C)C)cc8)c(Oc8ccc(C(C)(C)C)cc8)c(c2c37)C1=O)c64)C(=O)N(CCCC)C5=O` yielded an absorption maximum (in ClC(Cl)Cl) of 570 nm.
`Cc1cc(-c2ccc(N(c3ccccc3)c3ccccc3)cc2)c2nsnc2c1-c1ccc(N(c2ccccc2)c2ccccc2)cc1` gave an absorption maximum (in ClCCl) of 432 nm.
Molecule `Cc1ccccc1C1=C2C=CC(=[N+](C)C)C=[C]2[Ge]([CH3])([CH3])[c]2cc(N(C)C)ccc21` has an absorption maximum (in O) of 635 nm.
Molecule `c1ccc(-c2nc(-c3cccs3)[nH]c2-c2ccccc2)cc1` has an absorption maximum (in CC#N) of 317 nm.
With `C(#Cc1ncnc2ccccc12)c1ccc(N(c2ccccc2)c2ccccc2)cc1` the absorption maximum (in ClCCl) was 411 nm.
`COC(=O)c1cccc2c1C#Cc1c(NC(C)=O)cccc1OCCCO2` showed an absorption maximum (in CC#N) of 335 nm and an absorption maximum (in ClCCl) of 341 nm.
Molecule `c1ccc(-c2nn(-c3ccccc3)c3nc4ccccc4cc23)cc1` has an absorption maximum (in C1CCCCC1) of 401.45 nm, an absorption maximum (in C1CCOC1) of 398.57 nm and an absorption maximum (in CC#N) of 396.83 nm. It also gave an absorption maximum (in CC(C)=O) of 396.04 nm, an absorption maximum (in CCCCCl) of 398.72 nm and an absorption maximum (in CCCCOCCCC) of 398.57 nm. It also gave an absorption maximum (in CN(C)C=O) of 397.93 nm.
For `c1ccc(-c2nc(-c3ccccc3)nc(-c3ccc(-n4c5ccccc5c5cc(-c6ccc7oc8ccccc8c7c6)ccc54)cc3)n2)cc1`, the absorption maximum (in Cc1ccccc1) was 370 nm.
With `c1ccc(N(c2ccccc2)c2ccc(-c3ncc(-c4cnc(-c5ccc(N(c6ccccc6)c6ccccc6)cc5)s4)s3)cc2)cc1` the absorption maximum (in CO) was 422 nm.
Work on `CCOC(=O)c1sc2nc3c(c(C#N)c2c1N)CCCC3` yielded an absorption maximum (in c1ccccc1) of 420 nm.
In the case of `CCCCCCc1ccc2c3c(ccc2c1)O[B-](F)(F)[N+](c1ccc([N+]2=Cc4c(ccc5cc(CCCCCC)ccc45)O[B-]2(F)F)cc1)=C3`, the absorption maximum (in C1CCOC1) is reported as 425 nm, the absorption maximum (in CC#N) is reported as 422 nm and the absorption maximum (in Cc1ccccc1) is reported as 436 nm. The absorption maximum (in ClCCl) was 430 nm.
With `CCCCn1c(-c2ccc(-c3nnc(-c4ccc(-c5nc(-c6ccccc6)c(-c6ccccc6)n5CCCC)cc4)o3)cc2)nc(-c2ccccc2)c1-c1ccccc1` the absorption maximum (in ClCCl) was 352 nm.
`CC(C)=N[O-]` gave an absorption maximum (in CCO) of 265 nm.
For `Nc1ccccc1`, the absorption maximum (in C1CCCCC1) was 283.13 nm.
With `F[B-]1(F)OC(c2ccccc2)=C(c2ccccc2)c2sc3ccccc3[n+]21` the absorption maximum (in C1CCOC1) was 360 nm.
Molecule `CCN(CC)c1ccc2cc(-c3ccc(-c4ccc(-c5cc6ccc(N(CC)CC)cc6oc5=O)cc4)cc3)c(=O)oc2c1` has an absorption maximum (in ClCCl) of 417 nm.
`COC(=O)c1c(-c2cc3ccccc3oc2=O)nn(-c2cccc(C)c2)c1C(=O)OC` gave an absorption maximum (in ClCCl) of 324 nm.
Work on `O=P1(c2ccccc2)c2cc(N3c4ccccc4Sc4ccccc43)ccc2-c2ccc(N3c4ccccc4Sc4ccccc43)cc21` yielded an absorption maximum (in Cc1ccccc1) of 399 nm.
With `Cc1ccc(C2=C3C=CC(Nc4ccccc4)=[N+]3[B-](F)(F)n3c(Nc4ccccc4)ccc32)cc1` the absorption maximum (in CO) was 588 nm.
`COc1cc(-c2cc(N3CCCCC3)c(C#N)c3c2-c2cccc4cccc-3c24)cc(OC)c1OC` showed an absorption maximum (in O) of 430 nm.
For `Cc1ccc2[nH]c(-c3ccc(-c4ccc(-c5ccc(-c6nc7cc(C)ccc7[nH]6)cc5)c(F)c4)cc3)nc2c1`, the absorption maximum (in CN(C)C=O) was 344 nm.
With `Cc1cc(C)c(C2=C3C=C(/C=C/C(=O)OCc4ccccc4)C=[N+]3[B-](F)(F)n3cccc32)c(C)c1` the absorption maximum (in ClCCl) was 537 nm.
`CC(C)c1cccc(C(C)C)c1N1C(=O)c2cccc3c(Oc4ccc(C(C)(C)c5ccccc5)cc4)ccc(c23)C1=O` showed an absorption maximum (in ClCCl) of 365 nm.
Molecule `c1ccc(-c2nc3nc4ccccc4nc3n2-c2ccccc2)cc1` has an absorption maximum (in CC#N) of 348 nm.
With `COC(=O)C1=C(C(=O)OC)C2(c3ccccc3-c3ccccc32)[C@@H](c2ccc(C)cc2)C=C2c3cc(OC)c(OC)cc3CCN21` the absorption maximum (in ClCCl) was 311 nm.
`Fc1cc(-c2nc(-c3ccccc3)nc(-c3ccccc3)n2)ccc1-n1c2ccccc2c2c3c(ccc21)C1(c2ccccc2-c2ccccc21)c1ccccc1-3` gave an absorption maximum (in Cc1ccccc1) of 370 nm.
